Assay results reported in patent US20220313639A1, “MITOCHONDRIAL FUNCTION ACTIVATOR” (Yuki Gosei Kogyo Co., Ltd., priority 2019, published 2022).
Where two headings read alike, the source gives them in different places.

Assays:
[1] = tested on: undifferentiated mouse skeletal muscle-derived myoblast line, C2C12 cells; conditions: vs 1×PBS control
Protocol: (§1) C2C12 cells were subcultured at 37° C. in the presence of 5% CO2, using Dulbecco's Modified Eagle Medium (DMEM) (Nissui, Tokyo, Japan) containing 10% inactivated FBS, penicillin (100,000 U/L; Meiji, Tokyo, Japan), streptomycin (100 mg/L: Meiji), NaHCO3 (2.0 g/L: Wako, Osaka, Japan), and L-glutamine (Wako).
The number of mitochondria in C2C12 cells was measured as follows.
(§2) C2C12 cells were seeded in 6-well plates at 4.0×10^5 cells/well, and after 24 hours, β-alanine was added thereto at a concentration of 500 μM or 1 mM. In addition, 1×PBS was added to as a control well. After 2 hours from the above addition, the medium was removed by suction, and 2 mL/well of Mito Tracker Green FM (Invitrogen) which is diluted to 200 nM in DMEM medium containing 10% FBS, was added. Then, the whole was incubated for 30 minutes at 37° C. in the presence of 5% CO2 under shading. Then, the diluted solution was removed by suction, and 1×PBS was added at 1 mL/well to wash the cells. 1×PBS was removed by suction and trypsin was added at 500 μL/well. Then, trypsin was removed by suction and incubated at 37° C. in the presence of 5% CO2 for 5 minutes under shading. After incubation, the cells were suspended to 1 mL of DMEM medium containing 10% FBS to be collected in a 1.5 mL tube. After passing this cell suspension through a nylon mesh (Kyoshin Riko, Tokyo, Japan), the cells were measured by a flow cytometer (EPICS XL System II-JK, Beckman Coulter, CA, USA; Cell Analyzer EC800 CSC, Sony, Tokyo, Japan). The analysis was performed at the FCM analysis software FlowJo (TOMY Digital Biology, Tokyo, Japan).
(§3) In addition, cells were seeded, and β-alanine was added thereto at a concentration of 100 μM or 1 mM. After 24 hours, β-alanine was secondary added, and the medium was aspirated after 24 hours of the second addition. Using the above cells treated with β-alanine for 48 hours as cells to which the diluted solution of Mito Tracker Green FM (Invitrogen) was added, the same procedure as the cells treated with β-alanine for 2 hours was repeated.
Mito Tracker Green FM (Invitrogen) is a fluorescent reagent that stains mitochondria independently of the membrane potential.
(§4) The procedure described in Example 1 was repeated, except that glycine was used instead of β-alanine.

[2] = tested on: undifferentiated mouse skeletal muscle-derived myoblast line, C2C12 cells; conditions: for mitochondrial activation (Mito Tracker Red CMXRos): vs 1×PBS control
Protocol: as §1
as §2, with “The number of activated mitochondria in C2C12 cells was measured as follows. C2C12” for “C2C12”, “Red CMXRos (Invitrogen)” for “Green FM”, “250” for “200”, “tube.” for “tube. After passing this cell suspension through a nylon mesh (Kyoshin Riko, Tokyo, Japan), the cells were measured by a flow cytometer (EPICS XL System II-JK, Beckman Coulter, CA, USA; Cell Analyzer EC800 CSC, Sony, Tokyo, Japan). The analysis was performed at the FCM analysis software FlowJo (TOMY Digital Biology, Tokyo, Japan).”
(§5) After passing this cell suspension through a nylon mesh (Kyoshin Riko), the cells were measured by a flow cytometer (EPICS XL System II-JK, Beckman Coulter, CA, USA; Cell Analyzer EC800 CSC, Sony). The analysis was performed at the FCM analysis software FlowJo (TOMY Digital Biology, Tokyo, Japan).
as §3, with “Red CMXRos” for “Green FM”
On the other hand, Mito Tracker Red CMXRos (Invitrogen) is a fluorescent reagent that stains mitochondria in a membrane potential-dependent manner. Therefore,
when a peak of the flow cytometer histogram shifts to the right by the addition of β-alanine, it indicates mitochondrial activity was enhanced.
as §4
The cells were prepared by repeating the procedure of Mito Tracker Red CMX Ros in Example 1 except that the treatment with β-alanine was set to 72 hours.

[3] = tested on: C2C12 cells differentiated into myotube cells
Protocol: as §2
(§6) In addition, cells were seeded, and β-alanine was added thereto at a concentration of 100 μM or 1 mM. […]

[4] = tested on: C2C12 cells differentiated into myotube cells; remark: listed apart in the source
Protocol: as §2, with “The number of activated mitochondria in C2C12 cells was measured as follows. C2C12” for “C2C12”, “Red CMXRos (Invitrogen)” for “Green FM”, “250” for “200”, “tube.” for “tube. After passing this cell suspension through a nylon mesh (Kyoshin Riko, Tokyo, Japan), the cells were measured by a flow cytometer (EPICS XL System II-JK, Beckman Coulter, CA, USA; Cell Analyzer EC800 CSC, Sony, Tokyo, Japan). The analysis was performed at the FCM analysis software FlowJo (TOMY Digital Biology, Tokyo, Japan).”
as §5, §6

Pgc-1α gene = conditions: differentiated C2C12 cells, 48 hours, relative to β-actin, ΔΔCt method
[5] = tested on: undifferentiated mouse skeletal muscle-derived myoblast line, C2C12 cells; conditions: 48 hours
Protocol: In this example, mitochondrial activation was examined by using a confocal laser scanning microscope.
The cells treated with β-alanine for 48 hours were prepared by the same procedure as in Example 1. C2C12 cells were seeded at a concentration of 3.0×10^4 cells/mL or 5.0×10^4 cell s/mL, and Mito Tracker Green FM (Invitrogen) and Mito Tracker Red CMXRos (Invitrogen) were added simultaneously. The resulting cells were observed under a confocal laser scanning microscope (Olympus).

Acaa1b gene = conditions: differentiated C2C12 cells; 500 μM
Protocol: (§7) In this example, the transcription of the genes for Acaa1b and Acaa2 in β-alanine-treated mouse skeletal muscle-derived myoblast line, C2C12 cells was measured.
(§8) The procedure described in Example 4 was repeated except that the Acaa1b forward primer and the Acaa1b reverse primer, or the Acaa2 forward primer and the Acaa2 reverse primer were used instead of the Pgc-1α forward primer and the Pgc-1α reverse primer.

Acaa2 gene = conditions: differentiated C2C12 cells; 500 μM
Protocol: as §7, §8

[6] = treatment time 2 hours, 500 μM or 1 mM
[7] = treatment time 48 hours, 100 μM or 1 mM

NCC(=O)O [glycine]
number of mitochondria (Mito Tracker Green FM) [1, 6]: increased in a concentration-dependent manner
number of mitochondria (Mito Tracker Green FM) [1, 7]: increased in a concentration-dependent manner
mitochondrial activation (Mito Tracker Red CMXRos) [2, 6]: mitochondrial activation was confirmed
mitochondrial activation (Mito Tracker Red CMXRos) [2, 7]: mitochondrial activation was confirmed
number of mitochondria (Mito Tracker Green FM) ([3]; treatment time 2 hours): increased in a concentration-dependent manner
number of mitochondria (Mito Tracker Green FM) ([3]; treatment time 48 hours): increased in a concentration-dependent manner
mitochondrial activation (Mito Tracker Red CMXRos) ([4]; treatment time 2 hours): mitochondrial activation was confirmed
mitochondrial activation (Mito Tracker Red CMXRos) ([4]; treatment time 48 hours): mitochondrial activation was confirmed
expression of Pgc-1α (Pgc-1α gene; 500 μM): enhanced the expression

NCCC(=O)O [β-alanine, 3-aminopropanoic acid]
number of mitochondria (Mito Tracker Green FM) [1, 6]: increased in a concentration-dependent manner
number of mitochondria (Mito Tracker Green FM) [1, 7]: increased in a concentration-dependent manner
fluorescence of Mito Tracker Red (flow cytometry) ([2]; treatment 72 hours): increased the fluorescence
mitochondrial activation (Mito Tracker Red CMXRos) [2, 6]: mitochondrial activation was confirmed
mitochondrial activation (Mito Tracker Red CMXRos) [2, 7]: mitochondrial activation was confirmed
red fluorescence of Mito Tracker Red CMX Ros (confocal microscope) ([5]; 500 μM): strengthened the red fluorescence
red fluorescence of Mito Tracker Red CMX Ros (confocal microscope) ([5]; 1 mM): further strengthened the red fluorescence
expression of Acaa1b (Acaa1b gene): enhanced the expression
expression of Acaa2 (Acaa2 gene): enhanced the expression
expression of Pgc-1α (Pgc-1α gene; 500 μM): enhanced the expression
expression of Pgc-1α (Pgc-1α gene; 1 mM): enhanced the expression
